Reference: US10287305B2, “Substituted piperidine compound and use thereof” (Takeda Pharmaceutical Company Limited, priority 2016, dated 2019)

Biological target: human orexin type 2 receptor (hOX2R) (Homo sapiens (Human), UniProt O43614)
Experiment: Measurement of orexin type 2 receptor agonist activity (Experimental Example 2-1, FLIPR TETRA, intracellular Ca2+)
Assay type: cell-based
Details: CHO dhfr- cells expressing hOX2R; for Emax: read-out: Emax (%)

Chain of human orexin type 2 receptor (hOX2R) (O43614 whole entry): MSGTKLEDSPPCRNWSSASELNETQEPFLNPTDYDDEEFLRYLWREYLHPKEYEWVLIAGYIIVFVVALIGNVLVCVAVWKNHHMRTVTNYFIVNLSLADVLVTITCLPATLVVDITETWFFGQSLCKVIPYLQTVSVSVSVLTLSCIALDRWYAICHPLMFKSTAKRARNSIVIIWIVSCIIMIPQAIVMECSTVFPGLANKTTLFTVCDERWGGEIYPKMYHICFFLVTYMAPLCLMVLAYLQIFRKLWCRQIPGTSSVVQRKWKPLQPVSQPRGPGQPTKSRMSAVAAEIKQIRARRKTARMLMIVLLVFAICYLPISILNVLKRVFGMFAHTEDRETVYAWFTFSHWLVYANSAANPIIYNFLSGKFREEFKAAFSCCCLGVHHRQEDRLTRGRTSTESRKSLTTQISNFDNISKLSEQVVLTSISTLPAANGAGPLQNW

EC50 (agonist activity, 10 nM human orexin B = 100%) [nM]	Emax at 30 µM (value at 30 uM concentration, orexin B as full agonist = 100%) [%]	EC50 (FLIPR TETRA, Fluo-4AM) [nM]	Emax (FLIPR TETRA, Fluo-4AM) [%]	Emax (%) (FLIPR TETRA, Fluo-4AM)	Structure (SMILES)
2.2	100	–	–	–	[2H]C1C([2H])[C@]([2H])(C(C)C)C([2H])C([2H])[C@]1([2H])OC[C@H]1[C@@H](NS(C)(=O)=O)CCCN1C(=O)NCC (stereo partly drawn) [Example 104, cis-N-ethyl-2-(((cis-4-isopropyl(1,2,3,4,5,6-d6)cyclohexyl)oxy)methyl)-3-((methylsulfonyl)amino)piperidine-1-carboxamide]
–	–	10	100	–	CC(=O)N1CCC[C@H](NS(C)(=O)=O)[C@@H]1CO[C@H]1CC[C@@H](c2cccc(F)c2)CC1 [Example 147, N-((2R,3S)-1-acetyl-2-(((cis-4-(3-fluorophenyl)cyclohexyl)oxy)methyl)piperidin-3-yl)methanesulfonamide]
–	–	0.053	103	–	CCNC(=O)N1CCC[C@H](NS(C)(=O)=O)[C@@H]1CO[C@H]1CC[C@@H](c2cccc(F)c2)CC1 [Example 148, (2R,3S)-N-ethyl-2-(((cis-4-(3-fluorophenyl)cyclohexyl)oxy)methyl)-3-((methylsulfonyl)amino)piperidine-1-carboxamide]
–	–	25	100	–	CS(=O)(=O)N[C@H]1CCCN(C(=O)[C@H]2CCOC2)[C@H]1CO[C@H]1CC[C@@H](c2ccccc2)CC1 [Example 149, N-(cis-2-(((cis-4-phenylcyclohexyl)oxy)methyl)-1-((3S)-tetrahydrofuran-3-ylcarbonyl)piperidin-3-yl)methanesulfonamide]
–	–	30	99	–	CS(=O)(=O)N[C@H]1CCCN(C(=O)[C@@H]2CCOC2)[C@H]1CO[C@H]1CC[C@@H](c2ccccc2)CC1 [Example 150, N-(cis-2-(((cis-4-phenylcyclohexyl)oxy)methyl)-1-((3R)-tetrahydrofuran-3-ylcarbonyl)piperidin-3-yl)methanesulfonamide]
–	–	17	106	–	CS(=O)(=O)N[C@H]1CCCN(C(=O)CC#N)[C@H]1CO[C@H]1CC[C@@H](c2ccccc2)CC1 [Example 180, N-((2R,3S)-1-(cyanoacetyl)-2-(((cis-4-phenylcyclohexyl)oxy)methyl)piperidin-3-yl)methanesulfonamide]
–	–	–	89	–	CS(=O)(=O)CC(=O)N1CCC[C@H](NS(C)(=O)=O)[C@@H]1CO[C@H]1CC[C@@H](c2ccccc2)CC1 [Example 181, N-((2R,3S)-1-((methylsulfonyl)acetyl)-2-(((cis-4-phenylcyclohexyl)oxy)methyl)piperidin-3-yl)methanesulfonamide]
–	–	2.3	92	–	CCC(=O)N1CCC[C@H](NS(C)(=O)=O)[C@@H]1CO[C@H]1CC[C@@H](c2ccccc2)CC1 [Example 182, N-((2R,3S)-2-(((cis-4-phenylcyclohexyl)oxy)methyl)-1-propionylpiperidin-3-yl)methanesulfonamide]
–	–	40	94	–	CS(=O)(=O)N[C@H]1CCCN(C(=O)[C@H]2CCC(=O)O2)[C@H]1CO[C@H]1CC[C@@H](c2ccccc2)CC1 [Example 183, N-((2R,3S)-1-(((2R)-5-oxotetrahydrofuran-2-yl)carbonyl)-2-(((cis-4-phenylcyclohexyl)oxy)methyl)piperidin-3-yl)methanesulfonamide]
–	–	9.3	93	–	CS(=O)(=O)N[C@H]1CCCN(C(=O)[C@@H]2CCC(=O)O2)[C@H]1CO[C@H]1CC[C@@H](c2ccccc2)CC1 [Example 184, N-((2R,3S)-1-(((2S)-5-oxotetrahydrofuran-2-yl)carbonyl)-2-(((cis-4-phenylcyclohexyl)oxy)methyl)piperidin-3-yl)methanesulfonamide]
–	–	21	98	–	CS(=O)(=O)N[C@H]1CCCN(C(=O)CO)[C@H]1CO[C@H]1CC[C@@H](c2ccccc2)CC1 [Example 185, N-((2R,3S)-1-glycoloyl-2-(((cis-4-phenylcyclohexyl)oxy)methyl)piperidin-3-yl)methanesulfonamide]
–	–	370	93	–	CS(=O)(=O)N[C@H]1CCCN(C(=O)C2(C#N)CC2)[C@H]1CO[C@H]1CC[C@@H](c2ccccc2)CC1 [Example 187, N-((2R,3S)-1-((1-cyanocyclopropyl)carbonyl)-2-(((cis-4-phenylcyclohexyl)oxy)methyl)piperidin-3-yl)methanesulfonamide]
–	–	23	97	–	C[C@H](O)C(=O)N1CCC[C@H](NS(C)(=O)=O)[C@@H]1CO[C@H]1CC[C@@H](c2ccccc2)CC1 [Example 188, N-((2R,3S)-1-((2S)-2-hydroxypropanoyl)-2-(((cis-4-phenylcyclohexyl)oxy)methyl)piperidin-3-yl)methanesulfonamide]
–	–	2.9	107	–	[2H]C([2H])([2H])OC(=O)N1CCC[C@H](NS(C)(=O)=O)[C@@H]1CO[C@H]1CC[C@@H](c2ccccc2)CC1 [Example 191, methyl-d3 (2R,3S)-3-((methylsulfonyl)amino)-2-(((cis-4-phenylcyclohexyl)oxy)methyl)piperidine-1-carboxylate]
–	–	–	95	–	COC(=O)N1CCC[C@H](NS(C)(=O)=O)[C@@H]1CO[C@H]1CC[C@@H](c2cccc(F)c2)CC1 [Example 200, methyl (2R,3S)-2-(((cis-4-(3-fluorophenyl)cyclohexyl)oxy)methyl)-3-((methylsulfonyl)amino)piperidine-1-carboxylate]
–	–	0.44	102	–	CS(=O)(=O)N[C@H]1CCCN(C(=O)C2CC2)[C@H]1CO[C@H]1CC[C@@H](c2c(F)cccc2F)CC1 [Example 213, N-((2R,3S)-1-(cyclopropylcarbonyl)-2-(((cis-4-(2,6-difluorophenyl)cyclohexyl)oxy)methyl)piperidin-3-yl)methanesulfonamide]
–	–	1.5	105	–	CS(=O)(=O)N[C@H]1CCCN(C(=O)C2CC2)[C@H]1CO[C@H]1CC[C@@H](c2cc(F)ccc2F)CC1 [Example 214, N-((2R,3S)-1-(cyclopropylcarbonyl)-2-(((cis-4-(2,5-difluorophenyl)cyclohexyl)oxy)methyl)piperidin-3-yl)methanesulfonamide]
–	–	2.5	105	–	COC(=O)N1CCC[C@H](NS(C)(=O)=O)[C@@H]1CO[C@H]1CC[C@@H](c2c(F)cccc2F)CC1 [Example 215, methyl (2R,3S)-2-(((cis-4-(2,6-difluorophenyl)cyclohexyl)oxy)methyl)-3-((methylsulfonyl)amino)piperidine-1-carboxylate]
–	–	13	–	110	CC(=O)N1CCC[C@H](NS(C)(=O)=O)[C@@H]1CO[C@H]1CC[C@@H](c2cc(F)ccc2F)CC1 [Example 217, N-((2R,3S)-1-acetyl-2-(((cis-4-(2,5-difluorophenyl)cyclohexyl)oxy)methyl)piperidin-3-yl)methanesulfonamide]
–	–	1600	96	–	CS(=O)(=O)N[C@H]1CCCN(C(=O)[C@@H]2C[C@@H]2F)[C@H]1COC1CCN(c2ccccc2F)CC1 [Example 221, N-(cis-1-(((1S,2S)-2-fluorocyclopropyl)carbonyl)-2-(((1-(2-fluorophenyl)piperidin-4-yl)oxy)methyl)piperidin-3-yl)methanesulfonamide]
–	–	2100	102	–	CS(=O)(=O)N[C@H]1CCCN(C(=O)[C@H]2C[C@@H]2F)[C@H]1COC1CCN(c2ccccc2F)CC1 [Example 222, N-(cis-1-(((1R,2S)-2-fluorocyclopropyl)carbonyl)-2-(((1-(2-fluorophenyl)piperidin-4-yl)oxy)methyl)piperidin-3-yl)methanesulfonamide]
–	–	280	102	–	CS(=O)(=O)N[C@H]1CCCN[C@H]1CO[C@H]1CC[C@@H](c2cc(F)cc(F)c2F)CC1 [Example 239, N-((2R,3S)-2-(((cis-4-(2,3,5-trifluorophenyl)cyclohexyl)oxy)methyl)piperidin-3-yl)methanesulfonamide]
–	–	24	107	–	CC(=O)N1CCC[C@H](NS(C)(=O)=O)[C@@H]1CO[C@H]1CC[C@@H](c2ccccc2F)CC1 [Example 240, N-((2R,3S)-1-acetyl-2-(((cis-4-(2-fluorophenyl)cyclohexyl)oxy)methyl)piperidin-3-yl)methanesulfonamide]
–	–	1.2	97	–	COC(=O)N1CCC[C@H](NS(C)(=O)=O)[C@@H]1CO[C@H]1CC[C@@H](c2cc(F)cc(F)c2)CC1 [Example 241, methyl (2R,3S)-2-(((cis-4-(3,5-difluorophenyl)cyclohexyl)oxy)methyl)-3-((methylsulfonyl)amino)piperidine-1-carboxylate]
–	–	0.88	99	–	CS(=O)(=O)N[C@H]1CCCN(C(=O)C2CC2)[C@H]1CO[C@H]1CC[C@@H](c2cc(F)cc(F)c2)CC1 [Example 242, N-((2R,3S)-1-(cyclopropylcarbonyl)-2-(((cis-4-(3,5-difluorophenyl)cyclohexyl)oxy)methyl)piperidin-3-yl)methanesulfonamide]
–	–	17	97	–	CC(=O)N1CCC[C@H](NS(C)(=O)=O)[C@@H]1CO[C@H]1CC[C@@H](c2cc(F)cc(F)c2F)CC1 [Example 243, N-((2R,3S)-1-acetyl-2-(((cis-4-(2,3,5-trifluorophenyl)cyclohexyl)oxy)methyl)piperidin-3-yl)methanesulfonamide]
–	–	2.6	97	–	COC(=O)N1CCC[C@H](NS(C)(=O)=O)[C@@H]1CO[C@H]1CC[C@@H](c2cc(F)cc(F)c2F)CC1 [Example 244, methyl (2R,3S)-3-((methylsulfonyl)amino)-2-(((cis-4-(2,3,5-trifluorophenyl)cyclohexyl)oxy)methyl)piperidine-1-carboxylate]
–	–	2	97	–	CS(=O)(=O)N[C@H]1CCCN(C(=O)C2CC2)[C@H]1CO[C@H]1CC[C@@H](c2cc(F)cc(F)c2F)CC1 [Example 245, N-((2R,3S)-1-(cyclopropylcarbonyl)-2-(((cis-4-(2,3,5-trifluorophenyl)cyclohexyl)oxy)methyl)piperidin-3-yl)methanesulfonamide]
